From patent US7001746B1, “Methods and compositions for the differentiation of human preadipocytes into adipocytes” (Artecel Sciences, Inc., priority 1999, dated 2006) come the findings set out here.

The test system of experiment [1] is differentiated adipocytes. Nature of the experiment: Lipolysis in differentiated human adipocytes, glycerol release (Example 5). It counts as cell-based. Conditions: increasing concentrations, 4 hours, adipocytes from five patients; FIG. 6. As to the method: Preadipocytes from 5 individual patients were isolated and differentiated into adipocytes as described herein. A 96-well plate of adipocytes differentiated by the method in Example 1 was prepared. After 21 days from plating, the cells were washed in Krebs-Ringer buffer and treated with increasing concentrations of isoproterenol. The positive and negative controls (0.5 μM isoproterenol in KRB and KRB alone, respectively) were added in duplicate. The plates were then incubated at 37° C. for four hours.
When lipolytic agents stimulate adipocytes, triglycerides are converted to glycerol and fatty acids. Lipolytic rate was measured in this example by measuring the glycerol released in the medium. At the end of the incubation time, conditioned medium (100 μl) from each well was transferred into a new plate. Glycerol standards (1 mM, 0.5 mM, 0.25 mM, 0.1 mM, 0.05 mM, 0.025 mM, 0 mM) were included.
Glycerol assay reagent (100 μl; Sigma glycerol assay kit) was added to each well. The solutions were mixed well and incubated at room temperature for 15 minutes and then the optical density of each well was read at 540 nm.

Experiment [2] deals with human preadipocytes. Nature of the experiment: Differentiation of human preadipocytes to adipocytes, Oil Red O staining (Example 2). The class given is cell-based. Conditions: Adipocyte, in differentiation medium, read-out: concentration that allows for half maximal stimulation of differentiation.
Experimental: Preadipocytes from the stroma-vascular fraction were resuspended in preadipocyte medium (DME-Ham's F-10, 1:1 (v/v), 10% FBS, and penicillin-streptomycin-fungizone) and plated at 25,000 cells/well in each of the wells of a 96 well plate (150 μl/well). The cells were then placed in a 37° C. 5% CO2 incubator and allowed to settle overnight. The following day, all of the medium was removed and replaced with 150 μl differentiation medium (Dulbecco's Modified Eagle Medium/Ham's F-10 Nutrient Broth (1:1, vol/vol), 15 mM HEPES buffer, pH 7.4, 33 μM biotin, 17 μM pantothenate, 0.2 mM isobutylmethylxanthine, 100 nM insulin, 1 μM dexamethasone, 1 μM BRL 49653 (diluted into medium from a 100× DMSO stock solution), 10% (vol/vol) fetal bovine serum, 60 U/l streptomycin, 60 U/l penicillin and 25 μg/l Fungizone). The cells were maintained on differentiation medium for 3 days. Additional differentiation medium was added as necessary to maintain the proper volume.
120 μl of the medium was removed, taking care to leave a 30 μl layer over the cell surface to prevent the maturing adipocytes from lifting off of the plate surface due to the surface tension created by removal of all the fluid. […]
(§1) Isopropanol (100 μl/well) was then added and the plate was incubated at room temperature for 10 minutes. […] The optical density was measured at 500 nm. […]
The test system of experiment [3] is human preadipocytes. Conditions: 1 μM BRL49653.
Experimental: The following procedure was used to determine the amount of lipid that had accumulated in the adipocytes. 120 μl/well of medium was removed from each well of the 96-well plates. Care was taken to prevent drying of the wells. 100 μl/well fixer solution (7% formaldehyde in PBS) was added and the plate was incubated at room temperature for at lease 2 hours. Oil Red O working solution was prepared by adding 4 ml distilled water to 6 ml Oil Red O stock solution (1% Oil Red O in isopropanol). The working solution was incubated for 20 minutes at room temperature and then filtered through Nalgene 0.8 μm filter wear. All of the fixer was removed by aspiration until wells were completely dry.
The cells were then incubated with 40 μl/well Oil Red O working solution at room temperature for 10-15 minutes. Care was taken not to touch the sides of the wells in order to prevent high background due to dye stuck on the wall of the well. The plate was covered during incubation to prevent evaporation. Following this incubation, all of the Oil Red O solution was removed and the cells were washed four times with 200 μl/well distilled water. […]
as §1

In the case of `CC(C)NCC(O)c1ccc(O)c(O)c1` (stereo not drawn) [isoproterenol], the “stimulation of lipolysis (glycerol release)” value in experiment [1] is “dose-dependently stimulate lipolysis”.

For `CN(CCOc1ccc(CC2SC(=O)NC2=O)cc1)c1ccccn1` (stereo not drawn) [BRL49653], the EC50 in the experiment with human preadipocytes [2] was 50 nM. The same molecule registered a differentiation in the experiment with human preadipocytes [3] of 100%.
